Test results reported in ChEMBL document CHEMBL5543142, “Discovery of YFJ-36: Design, Synthesis, and Antibacterial Activities of Catechol-Conjugated β-Lactams against Gram-Negative Bacteria” (J Med Chem, 2024).
Converted amounts (≈) assume the structure as drawn.

How the values were obtained:
Pseudomonas aeruginosa [1] = experiment: Antibacterial activity against Pseudomonas aeruginosa ATCC 27853 assessed as inhibition of bacterial growth incubated for 18 to 20 hrs by two fold serial dilution assay; assay type: functional; conditions: time 18-20 hrs
Escherichia coli [2] = experiment: Antibacterial activity against ESBL-producing multidrug-resistant Escherichia coli clinical isolate 14-1 assessed as inhibition of bacterial growth incubated for 18 to 20 hrs by two fold serial dilution assay; assay type: functional; conditions: time 18-20 hrs
Escherichia coli [3] = experiment: Antibacterial activity against ESBL-producing multidrug-resistant Escherichia coli clinical isolate 14-2 assessed as inhibition of bacterial growth incubated for 18 to 20 hrs by two fold serial dilution assay; assay type: functional; conditions: time 18-20 hrs
Escherichia coli [4] = experiment: Antibacterial activity against ESBL-producing multidrug-resistant Escherichia coli clinical isolate 14-4 assessed as inhibition of bacterial growth incubated for 18 to 20 hrs by two fold serial dilution assay; assay type: functional; conditions: time 18-20 hrs
Acinetobacter baumannii [5] = experiment: Antibacterial activity against OXA-23 producing multidrug-resistant Acinetobacter baumannii clinical isolate 15-1 assessed as inhibition of bacterial growth incubated for 18 to 20 hrs by two fold serial dilution assay; assay type: functional; conditions: time 18-20 hrs
Acinetobacter baumannii [6] = experiment: Antibacterial activity against OXA-23 producing multidrug-resistant Acinetobacter baumannii clinical isolate 15-2 assessed as inhibition of bacterial growth incubated for 18 to 20 hrs by two fold serial dilution assay; assay type: functional; conditions: time 18-20 hrs
Acinetobacter baumannii [7] = experiment: Antibacterial activity against OXA-23 producing multidrug-resistant Acinetobacter baumannii clinical isolate 15-3 assessed as inhibition of bacterial growth incubated for 18 to 20 hrs by two fold serial dilution assay; assay type: functional; conditions: time 18-20 hrs
Acinetobacter baumannii [8] = experiment: Antibacterial activity against OXA-23 producing multidrug-resistant Acinetobacter baumannii clinical isolate 15-4 assessed as inhibition of bacterial growth incubated for 18 to 20 hrs by two fold serial dilution assay; assay type: functional; conditions: time 18-20 hrs
Acinetobacter baumannii [9] = experiment: Antibacterial activity against OXA-23 producing multidrug-resistant Acinetobacter baumannii clinical isolate 15-5 assessed as inhibition of bacterial growth incubated for 18 to 20 hrs by two fold serial dilution assay; assay type: functional; conditions: time 18-20 hrs
Klebsiella pneumoniae [10] = experiment: Antibacterial activity against KPC-2 producing multidrug-resistant Klebsiella pneumoniae clinical isolate 15-1 assessed as inhibition of bacterial growth incubated for 18 to 20 hrs by two fold serial dilution assay; assay type: functional; conditions: time 18-20 hrs
Klebsiella pneumoniae [11] = experiment: Antibacterial activity against KPC-2 producing multidrug-resistant Klebsiella pneumoniae clinical isolate 15-2 assessed as inhibition of bacterial growth incubated for 18 to 20 hrs by two fold serial dilution assay; assay type: functional; conditions: time 18-20 hrs
Klebsiella pneumoniae [12] = experiment: Antibacterial activity against KPC-2 producing multidrug-resistant Klebsiella pneumoniae clinical isolate 15-5 assessed as inhibition of bacterial growth incubated for 18 to 20 hrs by two fold serial dilution assay; assay type: functional; conditions: time 18-20 hrs
Pseudomonas aeruginosa [13] = experiment: Antibacterial activity against IMP-4 producing multidrug-resistant Pseudomonas aeruginosa clinical isolate 15-1 assessed as inhibition of bacterial growth incubated for 18 to 20 hrs by two fold serial dilution assay; assay type: functional; conditions: time 18-20 hrs
Pseudomonas aeruginosa [14] = experiment: Antibacterial activity against IMP-4 producing multidrug-resistant Pseudomonas aeruginosa clinical isolate 15-4 assessed as inhibition of bacterial growth incubated for 18 to 20 hrs by two fold serial dilution assay; assay type: functional; conditions: time 18-20 hrs
Pseudomonas aeruginosa [15] = experiment: Antibacterial activity against IMP-4 producing multidrug-resistant Pseudomonas aeruginosa clinical isolate 15-5 assessed as inhibition of bacterial growth incubated for 18 to 20 hrs by two fold serial dilution assay; assay type: functional; conditions: time 18-20 hrs
Escherichia coli [16] = experiment: Antibacterial activity against Escherichia coli ATCC35218 assessed as inhibition of bacterial growth incubated for 18 to 20 hrs by two fold serial dilution assay; assay type: functional; conditions: time 18-20 hrs
Pseudomonas aeruginosa [17] = experiment: Antibacterial activity against IMP-4 producing multidrug-resistant Pseudomonas aeruginosa clinical isolate 17-13 assessed as inhibition of bacterial growth incubated for 18 to 20 hrs by two fold serial dilution assay; assay type: functional; conditions: time 18-20 hrs
Pseudomonas aeruginosa [18] = experiment: Antibacterial activity against IMP-4 producing multidrug-resistant Pseudomonas aeruginosa clinical isolate 17-1 assessed as inhibition of bacterial growth incubated for 18 to 20 hrs by two fold serial dilution assay; assay type: functional; conditions: time 18-20 hrs
Pseudomonas aeruginosa [19] = experiment: Antibacterial activity against IMP-4 producing multidrug-resistant Pseudomonas aeruginosa clinical isolate 19-17 assessed as inhibition of bacterial growth incubated for 18 to 20 hrs by two fold serial dilution assay; assay type: functional; conditions: time 18-20 hrs
Acinetobacter baumannii [20] = experiment: Antibacterial activity against OXA-23 producing multidrug-resistant Acinetobacter baumannii clinical isolate 17-2 assessed as inhibition of bacterial growth incubated for 18 to 20 hrs by two fold serial dilution assay; assay type: functional; conditions: time 18-20 hrs
Acinetobacter baumannii [21] = experiment: Antibacterial activity against OXA-23 producing multidrug-resistant Acinetobacter baumannii clinical isolate 17-3 assessed as inhibition of bacterial growth incubated for 18 to 20 hrs by two fold serial dilution assay; assay type: functional; conditions: time 18-20 hrs
Pseudomonas aeruginosa [22] = experiment: Antibacterial activity against IMP-4 producing multidrug-resistant Pseudomonas aeruginosa clinical isolate 19-5 assessed as inhibition of bacterial growth incubated for 18 to 20 hrs by two fold serial dilution assay; assay type: functional; conditions: time 18-20 hrs
Pseudomonas aeruginosa [23] = experiment: Antibacterial activity against IMP-4 producing multidrug-resistant Pseudomonas aeruginosa clinical isolate 19-1 assessed as inhibition of bacterial growth incubated for 18 to 20 hrs by two fold serial dilution assay; assay type: functional; conditions: time 18-20 hrs
Acinetobacter baumannii [24] = experiment: Antibacterial activity against OXA-23 producing multidrug-resistant Acinetobacter baumannii clinical isolate 17-5 assessed as inhibition of bacterial growth incubated for 18 to 20 hrs by two fold serial dilution assay; assay type: functional; conditions: time 18-20 hrs
Acinetobacter baumannii [25] = experiment: Antibacterial activity against OXA-23 producing multidrug-resistant Acinetobacter baumannii clinical isolate 17-6 assessed as inhibition of bacterial growth incubated for 18 to 20 hrs by two fold serial dilution assay; assay type: functional; conditions: time 18-20 hrs
Acinetobacter baumannii [26] = experiment: Antibacterial activity against OXA-23 producing multidrug-resistant Acinetobacter baumannii clinical isolate 17-7 assessed as inhibition of bacterial growth incubated for 18 to 20 hrs by two fold serial dilution assay; assay type: functional; conditions: time 18-20 hrs
Acinetobacter baumannii [27] = experiment: Antibacterial activity against OXA-23 producing multidrug-resistant Acinetobacter baumannii clinical isolate 17-8 assessed as inhibition of bacterial growth incubated for 18 to 20 hrs by two fold serial dilution assay; assay type: functional; conditions: time 18-20 hrs
Klebsiella pneumoniae [28] = experiment: Antibacterial activity against KPC-2 producing multidrug-resistant Klebsiella pneumoniae clinical isolate 15-3 assessed as inhibition of bacterial growth incubated for 18 to 20 hrs by two fold serial dilution assay; assay type: functional; conditions: time 18-20 hrs
Escherichia coli [29] = experiment: Antibacterial activity against Escherichia coli NCTC-13353 assessed as inhibition of bacterial growth incubated for 18 to 20 hrs in presence of CAMHB medium by two fold serial dilution assay; assay type: functional; conditions: time 18-20 hrs
Escherichia coli [30] = experiment: Antibacterial activity against Escherichia coli ATCC-35218 assessed as inhibition of bacterial growth incubated for 18 to 20 hrs in presence of CAMHB medium by two fold serial dilution assay; assay type: functional; conditions: time 18-20 hrs
Klebsiella pneumoniae [31] = experiment: Antibacterial activity against Klebsiella pneumoniae ATCC BAA-1898 assessed as inhibition of bacterial growth incubated for 18 to 20 hrs in presence of CAMHB medium by two fold serial dilution assay; assay type: functional; conditions: time 18-20 hrs
Escherichia coli [32] = experiment: Antibacterial activity against Escherichia coli NCTC-13353 assessed as inhibition of bacterial growth incubated for 18 to 20 hrs in presence of iron-depleted CAMHB medium by two fold serial dilution assay; assay type: functional; conditions: time 18-20 hrs
Escherichia coli [33] = experiment: Antibacterial activity against Escherichia coli ATCC-35218 assessed as inhibition of bacterial growth incubated for 18 to 20 hrs in presence of iron-depleted CAMHB medium by two fold serial dilution assay; assay type: functional; conditions: time 18-20 hrs
Klebsiella pneumoniae [34] = experiment: Antibacterial activity against Klebsiella pneumoniae ATCC BAA-1898 assessed as inhibition of bacterial growth incubated for 18 to 20 hrs in presence of iron-depleted CAMHB medium by two fold serial dilution assay; assay type: functional; conditions: time 18-20 hrs
Escherichia coli [35] = experiment: Antibacterial activity against Escherichia coli ATCC-35218 infected in ICR mouse assessed as inhibition of bacterial growth at iv after 1 and 5 hour of post-infection measured after 7 days; assay type: functional; conditions: ATCC-35218, 168 h, time 7 day
Acinetobacter baumannii [36] = experiment: Antibacterial activity against multidrug-resistant Acinetobacter baumannii BM-2023-D2-010 infected in ICR mouse assessed as inhibition of bacterial growth at iv after 1 and 5 hour of post-infection measured after 7 days; assay type: functional; conditions: BM-2023-D2-010, 168 h, time 7 day
[37] = Plasma protein binding in mouse incubated for 35 mins by LC-MS/MS analysis; assay type: ADME, cell-free; conditions: read-out: PPB (converted)
[38] = biological target: Voltage-gated inwardly rectifying potassium channel KCNH2 (Homo sapiens, UniProt Q12809); experiment: Inhibition of hERG by whole cell Qpatch assay; assay type: toxicity
Acinetobacter baumannii [39] = experiment: Antibacterial activity against multidrug-resistant Acinetobacter baumannii BM-2023-D2-010 infected in ICR mouse assessed as inhibition of bacterial growth by measuring its effective dose at iv after 1 and 5 hour of post-infection measured after 7 days; assay type: functional; conditions: BM-2023-D2-010, 168 h, time 7 day

Chain of Voltage-gated inwardly rectifying potassium channel KCNH2 (Q12809 whole entry): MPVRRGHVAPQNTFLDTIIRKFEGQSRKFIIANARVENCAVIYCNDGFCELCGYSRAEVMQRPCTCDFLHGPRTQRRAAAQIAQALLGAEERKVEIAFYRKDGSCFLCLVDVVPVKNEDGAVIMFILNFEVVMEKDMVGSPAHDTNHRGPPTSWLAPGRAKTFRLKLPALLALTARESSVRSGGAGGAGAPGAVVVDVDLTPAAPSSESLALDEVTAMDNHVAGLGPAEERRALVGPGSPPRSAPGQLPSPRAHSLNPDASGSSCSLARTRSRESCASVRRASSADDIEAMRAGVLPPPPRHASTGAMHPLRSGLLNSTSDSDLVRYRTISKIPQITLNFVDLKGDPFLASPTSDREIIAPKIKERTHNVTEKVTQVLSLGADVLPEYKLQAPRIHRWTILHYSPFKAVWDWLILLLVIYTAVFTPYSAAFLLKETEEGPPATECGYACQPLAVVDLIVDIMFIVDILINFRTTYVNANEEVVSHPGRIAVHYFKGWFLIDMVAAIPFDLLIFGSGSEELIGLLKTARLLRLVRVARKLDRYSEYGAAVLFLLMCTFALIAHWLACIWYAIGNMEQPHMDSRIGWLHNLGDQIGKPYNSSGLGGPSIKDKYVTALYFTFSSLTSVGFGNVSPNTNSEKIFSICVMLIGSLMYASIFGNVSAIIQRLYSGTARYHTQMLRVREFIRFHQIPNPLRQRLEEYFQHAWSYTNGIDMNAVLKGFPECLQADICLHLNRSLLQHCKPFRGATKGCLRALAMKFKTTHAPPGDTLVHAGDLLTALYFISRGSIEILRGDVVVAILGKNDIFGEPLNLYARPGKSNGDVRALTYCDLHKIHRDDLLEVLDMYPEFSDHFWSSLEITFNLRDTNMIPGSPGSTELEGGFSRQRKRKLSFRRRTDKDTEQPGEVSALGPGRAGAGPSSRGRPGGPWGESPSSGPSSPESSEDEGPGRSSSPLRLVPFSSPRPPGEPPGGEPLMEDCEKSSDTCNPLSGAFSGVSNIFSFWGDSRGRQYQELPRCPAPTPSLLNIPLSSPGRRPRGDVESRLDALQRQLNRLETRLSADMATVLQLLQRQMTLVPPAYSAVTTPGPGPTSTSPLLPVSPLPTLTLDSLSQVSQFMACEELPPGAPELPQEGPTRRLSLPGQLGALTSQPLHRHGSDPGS

CC(C)(O/N=C(\C(=O)N[C@@H]1C(=O)N2C(C(=O)[O-])=C(C[N+]3(CCNC(=O)c4ccc(O)c(O)c4Cl)CCCC3)CS[C@H]12)c1csc(N)n1)C(=O)O [CEFIDEROCOL] showed an MIC (Pseudomonas aeruginosa [1]) of 2 µg/mL (≈ 2.66 µM), an MIC (Escherichia coli [2]) of 0.125 µg/mL (≈ 0.166 µM) and an MIC (Escherichia coli [3]) of 1 µg/mL (≈ 1.33 µM). For the same molecule, the MIC (Escherichia coli [4]) was 2 µg/mL (≈ 2.66 µM), the MIC (Acinetobacter baumannii [5]) was 8 µg/mL (≈ 10.6 µM) and the MIC (Acinetobacter baumannii [6]) was 2 µg/mL (≈ 2.66 µM). For the same molecule, the MIC (Acinetobacter baumannii [7]) was 4 µg/mL (≈ 5.32 µM), the MIC (Acinetobacter baumannii [8]) was 4 µg/mL (≈ 5.32 µM) and the MIC (Acinetobacter baumannii [9]) was 2 µg/mL (≈ 2.66 µM). It also gave an MIC (Klebsiella pneumoniae [10]) of 8 µg/mL (≈ 10.6 µM), an MIC (Klebsiella pneumoniae [11]) of 4 µg/mL (≈ 5.32 µM) and an MIC (Klebsiella pneumoniae [12]) of 8 µg/mL (≈ 10.6 µM). It also gave an MIC (Pseudomonas aeruginosa [13]) of 4 µg/mL (≈ 5.32 µM), an MIC (Pseudomonas aeruginosa [14]) of 2 µg/mL (≈ 2.66 µM) and an MIC (Pseudomonas aeruginosa [15]) of 2 µg/mL (≈ 2.66 µM). It also gave an MIC (Escherichia coli [16]) of 0.06 µg/mL (≈ 0.0798 µM), an MIC (Pseudomonas aeruginosa [17]) of 1 µg/mL (≈ 1.33 µM) and an MIC (Pseudomonas aeruginosa [18]) of 8 µg/mL (≈ 10.6 µM). For the same molecule, the MIC (Pseudomonas aeruginosa [19]) was 0.5 µg/mL (≈ 0.665 µM), the MIC (Acinetobacter baumannii [20]) was 1 µg/mL (≈ 1.33 µM) and the MIC (Acinetobacter baumannii [21]) was 1 µg/mL (≈ 1.33 µM). The MIC (Pseudomonas aeruginosa [22]) was 1 µg/mL (≈ 1.33 µM), the MIC (Pseudomonas aeruginosa [23]) was 2 µg/mL (≈ 2.66 µM) and the MIC (Acinetobacter baumannii [24]) was 2 µg/mL (≈ 2.66 µM). It also gave an MIC (Acinetobacter baumannii [25]) of 1 µg/mL (≈ 1.33 µM), an MIC (Acinetobacter baumannii [26]) of 2 µg/mL (≈ 2.66 µM) and an MIC (Acinetobacter baumannii [27]) of 1 µg/mL (≈ 1.33 µM). It also gave an MIC (Klebsiella pneumoniae [28]) of 8 µg/mL (≈ 10.6 µM), an MIC (Escherichia coli [29]) of 0.5 µg/mL and an MIC (Escherichia coli [30]) of 1 µg/mL. For the same molecule, the MIC (Klebsiella pneumoniae [31]) was 8 µg/mL, the MIC (Escherichia coli [32]) was 0.5 µg/mL and the MIC (Escherichia coli [33]) was 0.06 µg/mL. It also gave an MIC (Klebsiella pneumoniae [34]) of 2 µg/mL, an MIC (Escherichia coli [35]) of 0.12 µg/mL (≈ 0.16 µM) and an MIC (Acinetobacter baumannii [36]) of 0.25 µg/mL (≈ 0.332 µM). It also gave a fraction unbound at 35 min [37] of 0.801, an IC50 [38] of 42 nM and an ED50 (Acinetobacter baumannii [39]) of 7 mg/kg.
